From the CheMixHub viscosity set

Assay: xn = mol fraction of the nth substance listed

CCCCCCCCCCCCc1ccccc1 + CCCCCCCCCCCCCCCC
viscosity [mPa·s], 102 kPa
Conditions | x1 = 0.09264 | x1 = 0.1868 | x1 = 0.2826 | x1 = 0.3803 | x1 = 0.4789 | x1 = 0.5793 | x1 = 0.6819 | x1 = 0.786 | x1 = 0.892
293.15 K | 3.55 | 3.67 | 3.82 | 3.99 | 4.16 | 4.36 | 4.59 | 4.85 | 5.14
303.15 K | 2.81 | 2.9 | 3.01 | 3.13 | 3.26 | 3.41 | 3.58 | 3.76 | 3.97
313.15 K | 2.27 | 2.35 | 2.43 | 2.52 | 2.63 | 2.74 | 2.86 | 3 | 3.16
323.15 K | 1.88 | 1.94 | 2.01 | 2.08 | 2.16 | 2.25 | 2.34 | 2.45 | 2.57

CCCCCOC(C)=O + CC(C)=O
298.15 K, 101 kPa
Conditions | viscosity [mPa·s]
x2 = 0.17 | 0.688
x2 = 0.336 | 0.6224

CCCCCOC(C)=O + Oc1ccccc1
Conditions | viscosity [mPa·s]
298.15 K, 101 kPa, x2 = 0.5 | 1.105

CC1CCC(C)O1 (stereo not drawn) + Brc1ccccc1
viscosity [mPa·s], 101 kPa
Conditions | x1 = 0.0965 | x1 = 0.2006 | x1 = 0.3011 | x1 = 0.4016 | x1 = 0.4921
298.15 K | 1.003 | 0.941 | 0.8808 | 0.8196 | 0.7658
313.15 K | 0.833 | 0.7831 | 0.7338 | 0.6848 | 0.6411

CCCCCOC(C)=O + CCCCOC(C)=O
298.15 K, 101.33 kPa
Conditions | viscosity [mPa·s]
x2 = 0.1116 | 0.834
x2 = 0.2559 | 0.81
x2 = 0.3941 | 0.787
x2 = 0.5285 | 0.76
x2 = 0.6578 | 0.738
x2 = 0.7859 | 0.715
x2 = 0.9088 | 0.694

ClCC(Cl)Cl + COc1ccccc1N
viscosity [mPa·s], 100 kPa
Conditions | x2 = 0.0884 | x2 = 0.1905 | x2 = 0.2923 | x2 = 0.4076 | x2 = 0.5076 | x2 = 0.5945 | x2 = 0.7016 | x2 = 0.8104 | x2 = 0.9023
303.15 K | 1.376 | 1.786 | 2.192 | 2.647 | 3.038 | 3.376 | 3.789 | 4.204 | 4.554
308.15 K | 1.291 | 1.676 | 2.055 | 2.478 | 2.841 | 3.154 | 3.535 | 3.918 | 4.236
313.15 K | 1.204 | 1.566 | 1.916 | 2.307 | 2.641 | 2.929 | 3.279 | 3.629 | 3.918

CCCCCOC(C)=O + ClC(Cl)(Cl)Cl
303.15 K, 101.3 kPa
Conditions | viscosity [mPa·s]
x1 = 0.0945 | 0.8029
x1 = 0.1925 | 0.7788
x1 = 0.3042 | 0.7586
x1 = 0.4017 | 0.7482
x1 = 0.5021 | 0.7413
x1 = 0.6003 | 0.7378
x1 = 0.7016 | 0.7385
x1 = 0.808 | 0.7427
x1 = 0.9075 | 0.746

O=C(O)CO + C[N+](C)(C)CCO.[Cl-]
100 kPa, x2 = 0.5
Conditions | viscosity [mPa·s]
293.15 K | 779.4
298.15 K | 547.9
303.15 K | 394.8
308.15 K | 290.6
313.15 K | 218.6
318.15 K | 167
323.15 K | 130.1

CCCCCOC(C)=O + CCCCO
viscosity [mPa·s], 101.33 kPa
Conditions | x1 = 0.1138 | x1 = 0.2047 | x1 = 0.3089 | x1 = 0.4008 | x1 = 0.5 | x1 = 0.6103 | x1 = 0.7064 | x1 = 0.8088 | x1 = 0.9025
293.15 K | 2.52 | 2.275 | 2.024 | 1.825 | 1.633 | 1.443 | 1.295 | 1.154 | 1.039
303.15 K | 2.02 | 1.838 | 1.649 | 1.499 | 1.353 | 1.206 | 1.092 | 0.982 | 0.891
313.15 K | 1.515 | 1.395 | 1.269 | 1.167 | 1.066 | 0.964 | 0.883 | 0.805 | 0.739
323.15 K | 1.009 | 0.948 | 0.883 | 0.83 | 0.776 | 0.72 | 0.674 | 0.629 | 0.59

C=CC(=O)OC + c1ccccc1
viscosity [mPa·s], 101 kPa
Conditions | x2 = 0.105 | x2 = 0.2191 | x2 = 0.3452 | x2 = 0.4069 | x2 = 0.5314 | x2 = 0.6457 | x2 = 0.714 | x2 = 0.7852 | x2 = 0.8977
298.15 K | 0.472 | 0.485 | 0.501 | 0.509 | 0.526 | 0.543 | 0.554 | 0.565 | 0.585
303.15 K | 0.433 | 0.447 | 0.462 | 0.47 | 0.488 | 0.505 | 0.515 | 0.526 | 0.545
308.15 K | 0.398 | 0.412 | 0.428 | 0.436 | 0.453 | 0.47 | 0.481 | 0.492 | 0.51
313.15 K | 0.369 | 0.382 | 0.392 | 0.403 | 0.418 | 0.433 | 0.442 | 0.452 | 0.467

CC(C)CO + CCCCO
101 kPa
Conditions | viscosity [mPa·s]
293.15 K, x2 = 0.2 | 3.68
293.15 K, x2 = 0.4 | 3.434
293.15 K, x2 = 0.6 | 3.243
293.15 K, x2 = 0.8 | 3.078
298.15 K, x2 = 0.0982 | 3.238
298.15 K, x2 = 0.2007 | 3.111
298.15 K, x2 = 0.301 | 3.016
298.15 K, x2 = 0.4046 | 2.935
298.15 K, x2 = 0.5026 | 2.859
298.15 K, x2 = 0.6261 | 2.772
298.15 K, x2 = 0.7024 | 2.726
298.15 K, x2 = 0.8001 | 2.672
298.15 K, x2 = 0.9178 | 2.608
313.15 K, x2 = 0.2 | 2.022
313.15 K, x2 = 0.4 | 1.937
313.15 K, x2 = 0.6 | 1.872
313.15 K, x2 = 0.8 | 1.818

CC(C)(C)c1ccccc1 + Cc1ccccc1
303.15 K, 101.3 kPa
Conditions | viscosity [mPa·s]
x2 = 0.0457 | 0.974
x2 = 0.0865 | 0.949
x2 = 0.2449 | 0.8605
x2 = 0.3937 | 0.7829
x2 = 0.4453 | 0.7568
x2 = 0.5167 | 0.7206
x2 = 0.6672 | 0.6507
x2 = 0.7678 | 0.6057
x2 = 0.8687 | 0.5626
x2 = 0.957 | 0.5317
x2 = 0.9788 | 0.5253

Cc1ccccc1O + C1COCCO1
308.15 K, 101 kPa
Conditions | viscosity [mPa·s]
x2 = 0.1 | 4.947
x2 = 0.2 | 4.855
x2 = 0.3 | 4.267
x2 = 0.4 | 3.498
x2 = 0.5 | 2.795
x2 = 0.6 | 2.208
x2 = 0.7 | 1.764
x2 = 0.8 | 1.382
x2 = 0.9 | 1.163
